Measured values taken from ChEMBL document CHEMBL1287752, “Changes in flavonoid content and tyrosinase inhibitory activity in kenaf leaf extract after far-infrared treatment” (Bioorg Med Chem Lett, 2010).

Tests used:
[1] = molecular target: T1, Tyrosinase (Agaricus bisporus, UniProt O42713); test: Inhibition of mushroom tyrosinase after 20 mins by spectrophotometric analysis
T1 sequence (O42713 whole entry): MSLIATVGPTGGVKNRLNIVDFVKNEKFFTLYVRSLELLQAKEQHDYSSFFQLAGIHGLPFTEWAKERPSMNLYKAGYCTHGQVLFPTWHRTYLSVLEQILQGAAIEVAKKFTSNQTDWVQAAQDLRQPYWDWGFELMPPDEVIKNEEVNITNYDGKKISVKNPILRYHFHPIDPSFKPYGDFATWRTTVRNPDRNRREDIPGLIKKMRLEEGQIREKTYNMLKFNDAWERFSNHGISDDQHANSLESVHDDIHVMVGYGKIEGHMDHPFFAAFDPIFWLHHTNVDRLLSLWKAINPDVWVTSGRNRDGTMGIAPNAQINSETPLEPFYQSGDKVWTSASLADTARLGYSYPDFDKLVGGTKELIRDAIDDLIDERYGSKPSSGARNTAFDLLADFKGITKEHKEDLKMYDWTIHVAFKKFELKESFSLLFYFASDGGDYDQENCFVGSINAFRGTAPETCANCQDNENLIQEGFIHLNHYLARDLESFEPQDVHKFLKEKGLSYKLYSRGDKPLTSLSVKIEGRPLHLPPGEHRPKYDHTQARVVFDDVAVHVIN

[2] = molecular target: T2, Tyrosinase (Agaricus bisporus) (UniProt O42713); details: 400 uM
T2 sequence (whole entry): T1 sequence (O42713 whole entry)
Description: Inhibition of mushroom tyrosinase at 400 uM after 20 mins by spectrophotometric analysis

Row | SMILES | IC50 [1] [µM] | inhibition [2] [%]
1 | C[C@@H]1O[C@@H](Oc2cc(O)c3c(=O)c(O)c(-c4ccc(O)cc4)oc3c2)[C@H](O)[C@H](O)[C@H]1O [ALPHA-RHAMNOISOROBIN] | > 400 | < 39.1
2 | O=c1c(O)c(-c2ccc(O)cc2)oc2cc(O)cc(O)c12 [KAEMPFEROL] | 171 | 
